Experimental findings from ChEMBL document CHEMBL1155959, “Inhibitory effects of polymethoxy flavones isolated from Citrus reticulate on degranulation in rat basophilic leukemia RBL-2H3: enhanced inhibition by their combination” (Bioorg Med Chem, 2008) are described below.

For experiment [1], the system named is Radical scavenging activity. The experiment can be described thus: Antioxidant activity assessed as DPPH radical scavenging activity. The class given is functional. For orientation: DPPH is a stable violet radical that fades when it is reduced.
The test system of experiment [2] is RBL-2H3. Description: Effect on antigen-stimulated intracellular ROS production in IgE-sensitized CM-H2DCF-DA-treated rat RBL-2H3 cells assessed as increase in 2',7'-dichlorofluorescein oxidation at 50 uM after 30 mins in presence of dinitrophenylated bovine serum albumin. The class given is functional, cell-based.
Experiment [3] addresses Mitogen-activated protein kinase 8 (Rattus norvegicus) (UniProt P49185). The experiment can be described thus: Inhibition of JNK1/2 phosphorylation in antigen-stimulated rat RBL-2H3 cells at 50 uM by Western blot analysis in presence of dinitrophenylated bovine serum albumin. The class given is cell-based. (In general: A western blot detects proteins with antibodies after separation by electrophoresis.)

The target in experiment [4] is T1, 1-phosphatidylinositol 4,5-bisphosphate phosphodiesterase gamma-1 (Rattus norvegicus) (UniProt P10686).
T1 sequence (whole entry): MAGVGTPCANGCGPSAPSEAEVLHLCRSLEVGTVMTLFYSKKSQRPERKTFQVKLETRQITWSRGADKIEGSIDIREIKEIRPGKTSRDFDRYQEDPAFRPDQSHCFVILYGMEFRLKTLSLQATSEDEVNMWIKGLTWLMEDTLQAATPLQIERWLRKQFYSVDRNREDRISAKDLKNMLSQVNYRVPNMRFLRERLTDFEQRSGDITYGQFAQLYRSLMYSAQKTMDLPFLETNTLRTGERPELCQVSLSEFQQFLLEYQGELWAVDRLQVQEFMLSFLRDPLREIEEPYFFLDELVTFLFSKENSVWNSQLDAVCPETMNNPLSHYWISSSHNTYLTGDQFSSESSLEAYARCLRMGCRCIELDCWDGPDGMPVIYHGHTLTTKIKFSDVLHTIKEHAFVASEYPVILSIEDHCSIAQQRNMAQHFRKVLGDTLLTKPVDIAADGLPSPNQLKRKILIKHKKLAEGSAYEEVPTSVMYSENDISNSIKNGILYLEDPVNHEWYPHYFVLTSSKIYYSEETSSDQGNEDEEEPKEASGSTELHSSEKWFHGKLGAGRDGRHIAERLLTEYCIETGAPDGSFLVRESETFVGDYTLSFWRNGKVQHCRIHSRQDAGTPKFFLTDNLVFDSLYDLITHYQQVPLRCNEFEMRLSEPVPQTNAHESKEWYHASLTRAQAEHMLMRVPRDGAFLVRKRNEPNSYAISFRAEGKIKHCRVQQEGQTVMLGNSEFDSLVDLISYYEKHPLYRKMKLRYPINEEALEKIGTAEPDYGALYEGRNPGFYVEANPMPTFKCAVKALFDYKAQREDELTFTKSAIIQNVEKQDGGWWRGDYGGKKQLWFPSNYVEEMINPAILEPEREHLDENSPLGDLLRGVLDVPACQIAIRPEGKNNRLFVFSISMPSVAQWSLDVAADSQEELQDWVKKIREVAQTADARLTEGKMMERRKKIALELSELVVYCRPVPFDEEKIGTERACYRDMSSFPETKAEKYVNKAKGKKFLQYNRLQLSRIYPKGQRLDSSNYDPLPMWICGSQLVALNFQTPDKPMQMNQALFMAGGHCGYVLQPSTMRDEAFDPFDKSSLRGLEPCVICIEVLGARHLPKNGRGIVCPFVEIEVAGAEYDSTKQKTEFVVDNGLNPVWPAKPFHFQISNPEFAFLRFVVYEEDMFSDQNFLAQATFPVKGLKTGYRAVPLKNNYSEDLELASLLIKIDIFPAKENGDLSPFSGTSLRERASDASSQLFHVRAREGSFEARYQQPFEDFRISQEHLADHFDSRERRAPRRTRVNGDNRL
Description: Inhibition of PLC-gamma-1/gamma-2 phosphorylation in antigen-stimulated rat RBL-2H3 cells at 50 uM by Western blot analysis in presence of dinitrophenylated bovine serum albumin. The class given is cell-based.

In experiment [5] the target is Tyrosine-protein kinase SYK (Rattus norvegicus) (UniProt Q64725). Description: Inhibition of Syk phosphorylation in antigen-stimulated rat RBL-2H3 cells at 50 uM by Western blot analysis in presence of dinitrophenylated bovine serum albumin. The class given is cell-based.
Tyrosine-protein kinase SYK (Rattus norvegicus), sequence (Q64725 whole entry, looked up): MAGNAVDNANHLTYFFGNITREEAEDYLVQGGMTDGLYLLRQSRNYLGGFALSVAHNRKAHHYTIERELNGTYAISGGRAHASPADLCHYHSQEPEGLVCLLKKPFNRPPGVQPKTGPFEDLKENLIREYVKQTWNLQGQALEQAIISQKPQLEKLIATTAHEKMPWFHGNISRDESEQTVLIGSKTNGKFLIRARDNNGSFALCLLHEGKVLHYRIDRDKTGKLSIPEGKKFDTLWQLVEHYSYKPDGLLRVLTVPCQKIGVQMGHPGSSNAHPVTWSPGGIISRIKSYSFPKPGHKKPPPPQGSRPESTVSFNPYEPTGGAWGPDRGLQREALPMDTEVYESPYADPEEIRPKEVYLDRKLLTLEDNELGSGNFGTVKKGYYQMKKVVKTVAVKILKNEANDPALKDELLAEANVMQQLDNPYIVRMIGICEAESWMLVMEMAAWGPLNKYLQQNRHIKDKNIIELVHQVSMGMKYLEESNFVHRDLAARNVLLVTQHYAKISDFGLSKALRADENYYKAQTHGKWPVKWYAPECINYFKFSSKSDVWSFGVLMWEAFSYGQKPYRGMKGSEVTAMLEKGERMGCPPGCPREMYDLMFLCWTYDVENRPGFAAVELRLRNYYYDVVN
For experiment [6], the system named is RBL-2H3. The experiment can be described thus: Inhibition of p38 MAPK phosphorylation in antigen-stimulated rat RBL-2H3 cells at 50 uM by Western blot analysis in presence of dinitrophenylated bovine serum albumin. The class given is cell-based.
The subject of experiment [7] is RBL-2H3. The experiment can be described thus: Suppression of degranulation in IgE-sensitized rat RBL-2H3 cells assessed as inhibition of A-23187-stimulated histamine release after 30 mins. The class given is functional, cell-based.
Experiment [8] deals with RBL-2H3. Description: Suppression of degranulation in IgE-sensitized rat RBL-2H3 cells assessed as inhibition of antigen-stimulated histamine release after 30 mins in presence of dinitrophenylated bovine serum albumin. The class given is functional, cell-based.
The target in experiment [9] is Mitogen-activated protein kinase 1 and 3 (ERK2 and ERK1) (Rattus norvegicus) (UniProt P63086+P21708). The experiment can be described thus: Inhibition of ERK1/2 phosphorylation in antigen-stimulated rat RBL-2H3 cells at 50 uM by Western blot analysis in presence of dinitrophenylated bovine serum albumin. The class given is cell-based.
Mitogen-activated protein kinase 1 and 3 (ERK2 and ERK1) (Rattus norvegicus), sequence (P21708 whole entry, looked up): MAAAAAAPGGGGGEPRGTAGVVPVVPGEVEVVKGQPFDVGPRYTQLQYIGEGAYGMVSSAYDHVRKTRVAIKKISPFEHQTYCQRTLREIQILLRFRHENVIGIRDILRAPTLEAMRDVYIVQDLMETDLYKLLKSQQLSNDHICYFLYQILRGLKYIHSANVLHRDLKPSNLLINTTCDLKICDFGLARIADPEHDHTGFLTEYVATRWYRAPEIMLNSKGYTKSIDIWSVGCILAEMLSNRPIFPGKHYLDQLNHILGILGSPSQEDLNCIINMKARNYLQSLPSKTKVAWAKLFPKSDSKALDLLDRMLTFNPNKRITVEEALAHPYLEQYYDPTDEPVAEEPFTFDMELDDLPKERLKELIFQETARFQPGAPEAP
Mitogen-activated protein kinase 1 and 3 (ERK2 and ERK1) (Rattus norvegicus), sequence (P63086 whole entry, looked up): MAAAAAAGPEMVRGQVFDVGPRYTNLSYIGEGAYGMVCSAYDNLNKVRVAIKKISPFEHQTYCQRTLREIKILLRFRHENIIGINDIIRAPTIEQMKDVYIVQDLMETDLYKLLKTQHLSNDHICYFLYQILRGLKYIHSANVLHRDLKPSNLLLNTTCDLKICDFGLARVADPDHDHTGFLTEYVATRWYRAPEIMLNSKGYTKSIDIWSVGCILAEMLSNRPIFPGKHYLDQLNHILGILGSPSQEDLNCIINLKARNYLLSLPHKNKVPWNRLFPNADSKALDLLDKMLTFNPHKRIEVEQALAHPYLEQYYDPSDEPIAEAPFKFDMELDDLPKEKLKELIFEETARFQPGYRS
The target of experiment [10] is Tyrosine-protein kinase Lyn (Rattus norvegicus) (UniProt Q07014). Description: Inhibition of Lyn phosphorylation in antigen-stimulated rat RBL-2H3 cells at 50 uM by Western blot analysis in presence of dinitrophenylated bovine serum albumin. The class given is cell-based.
Tyrosine-protein kinase Lyn (Rattus norvegicus), sequence (Q07014 whole entry): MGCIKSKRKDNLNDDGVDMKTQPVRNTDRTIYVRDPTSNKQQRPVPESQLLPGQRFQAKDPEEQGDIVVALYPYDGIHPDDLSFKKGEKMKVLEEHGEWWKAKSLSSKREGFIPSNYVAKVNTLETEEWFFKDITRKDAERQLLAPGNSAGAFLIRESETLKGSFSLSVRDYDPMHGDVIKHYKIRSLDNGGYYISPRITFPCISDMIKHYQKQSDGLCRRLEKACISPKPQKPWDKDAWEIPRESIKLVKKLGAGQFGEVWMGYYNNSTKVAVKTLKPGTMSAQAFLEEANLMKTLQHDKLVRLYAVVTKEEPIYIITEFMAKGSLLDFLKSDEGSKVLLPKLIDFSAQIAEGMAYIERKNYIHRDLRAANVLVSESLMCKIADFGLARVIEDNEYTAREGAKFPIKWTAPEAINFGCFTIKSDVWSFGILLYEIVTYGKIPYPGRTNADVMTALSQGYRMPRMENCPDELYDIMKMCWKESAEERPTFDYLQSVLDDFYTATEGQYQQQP
The test system of experiment [11] is RBL-2H3. Description: Inhibition of degranulation in IgE-sensitized rat RBL-2H3 cells assessed as inhibition of antigen-stimulated intracellular calcium elevation after 30 mins in presence of dinitrophenylated bovine serum albumin. The class given is functional, cell-based. (Calcium flux is commonly read through the fluorescence of an indicator in the cells.)

Activity calls are given as the source filed them. The rule behind the calls is not given here.

Mitogen-activated protein kinase 8 (Rattus norvegicus), sequence (P49185 whole entry): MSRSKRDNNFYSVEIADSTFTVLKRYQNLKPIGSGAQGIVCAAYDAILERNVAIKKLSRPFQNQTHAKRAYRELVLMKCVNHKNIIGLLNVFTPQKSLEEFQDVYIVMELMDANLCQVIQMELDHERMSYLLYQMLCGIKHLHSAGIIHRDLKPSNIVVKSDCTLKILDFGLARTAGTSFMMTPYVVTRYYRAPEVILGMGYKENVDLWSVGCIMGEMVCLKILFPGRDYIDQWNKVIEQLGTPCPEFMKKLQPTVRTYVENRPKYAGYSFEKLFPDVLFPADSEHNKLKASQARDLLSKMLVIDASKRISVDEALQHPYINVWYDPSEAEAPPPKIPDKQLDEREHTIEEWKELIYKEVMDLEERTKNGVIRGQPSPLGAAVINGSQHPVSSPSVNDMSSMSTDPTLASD

Consider VITAMIN E, for which the ED50 in experiment [1] was 78 µM.
`COc1ccc(-c2cc(=O)c3c(O)c(OC)c(OC)cc3o2)cc1OC`: the outcome (in the experiment with RBL-2H3 [2]; in [4]; in [5]; in the experiment on RBL-2H3 [7]; in [9]; with RBL-2H3 [11]) was Active. Moreover, the outcome (in [3]; with RBL-2H3 [6]; in experiment [10]) was inactive. For the same compound, in [1], the ED50 was < 100 µM. Besides, the Activity result in the experiment on RBL-2H3 [8] was “Dose-dependent effect”.
On to `O=C(O[C@@H]1Cc2c(O)cc(O)cc2O[C@@H]1c1cc(O)c(O)c(O)c1)c1cc(O)c(O)c(O)c1`, for which the ED50 in [1] is 7 µM.
The same measure, in the same setting: the value for `O=C1O[C@H]([C@@H](O)CO)C(O)=C1O` was 18 µM.
Regarding `COc1ccc(OC)c(-c2cc(=O)c3c(OC)c(OC)cc(OC)c3o2)c1`, the result (in the experiment with RBL-2H3 [2]; in experiment [4]; in [5]; in the experiment with RBL-2H3 [7]; in experiment [9]; in the experiment with RBL-2H3 [11]) was Active. In addition, the result (in [3]; with RBL-2H3 [6]; in experiment [10]) was inactive. Besides, the ED50 in [1] was < 100 µM. For the same compound, the Activity entry with RBL-2H3 [8] is “Dose-dependent effect”.
For the compound `COc1cc(-c2cc(=O)c3c(OC)c(OC)c(OC)cc3o2)cc(OC)c1OC`, the result (in the experiment with RBL-2H3 [2]; in [4]; in experiment [5]; in the experiment with RBL-2H3 [7]; in [9]) was Active. For the same compound, the result (in experiment [3]; in the experiment on RBL-2H3 [6]; in experiment [10]; with RBL-2H3 [11]) was inactive. In experiment [1], the ED50 is < 100 µM. Further, the Activity entry with RBL-2H3 [8] is “Dose-dependent effect”.
